Experimental data published in US20130089624A1, “Compounds Useful as Inhibitors of ATR Kinase” (VERTEX PHARMACEUTICALS INCORPORATED, priority 2011, published 2013).

Experiments:
[1] = Pharmacokinetics, noncompartmental parameters following intravenous (IV) dosing; conditions: in vivo
Description: Noncompartmental pharmacokinetic parameters were analyzed using Watson Bioanalytical LIMS (Version 7.4; Thermo Fisher Scientific) from either the blood or plasma samples. The following parameters were estimated following intravenous (IV) dosing; terminal elimination half-life (T1/2=ln(2)/λz, where λz is the first order rate constant associated with the terminal (log-linear) portion of the curve.
The area under the curve (AUClast=area under the curve from the time of dosing to the last measurable concentration). The area under the curve extrapolated to infinity (AUC0-∞=AUClast+Clast/λz). The clearance (Cl; Cl=DoseIV/AUC0-∞). The area under the first moment curve (AUMClast=area under the concentration times time versus time curve from the time of dosing to the last measurable concentration). The area under the first moment curve extrapolated to infinity (AUMC0-∞=AUMClast+Clast×t/λz+Clast/λz^2). The mean residence time (MRT=AUMC0-∞/AUC0-∞) and the steady state volume of distribution (Vdss=MRT×Cl).
Clearance and volume of distribution can also be obtained using methods known to one of skill in the art (see e.g., Handbook of Essential Pharmacokinetics, Pharmacodynamics and Drug Metabolism for Industrial Scientists, Younggil Kwon, pp 18-28 (Non-compartmental Approach)).

full-length ATR = full-length ATR (Homo sapiens (Human), UniProt Q13535); test: ATR Inhibition Assay (radioactive-phosphate incorporation); assay type: biochemical; conditions: Ki(app); 5 nM full-length ATR, 10 μM ATP, 25° C.
Chain of full-length ATR (Q13535 whole entry): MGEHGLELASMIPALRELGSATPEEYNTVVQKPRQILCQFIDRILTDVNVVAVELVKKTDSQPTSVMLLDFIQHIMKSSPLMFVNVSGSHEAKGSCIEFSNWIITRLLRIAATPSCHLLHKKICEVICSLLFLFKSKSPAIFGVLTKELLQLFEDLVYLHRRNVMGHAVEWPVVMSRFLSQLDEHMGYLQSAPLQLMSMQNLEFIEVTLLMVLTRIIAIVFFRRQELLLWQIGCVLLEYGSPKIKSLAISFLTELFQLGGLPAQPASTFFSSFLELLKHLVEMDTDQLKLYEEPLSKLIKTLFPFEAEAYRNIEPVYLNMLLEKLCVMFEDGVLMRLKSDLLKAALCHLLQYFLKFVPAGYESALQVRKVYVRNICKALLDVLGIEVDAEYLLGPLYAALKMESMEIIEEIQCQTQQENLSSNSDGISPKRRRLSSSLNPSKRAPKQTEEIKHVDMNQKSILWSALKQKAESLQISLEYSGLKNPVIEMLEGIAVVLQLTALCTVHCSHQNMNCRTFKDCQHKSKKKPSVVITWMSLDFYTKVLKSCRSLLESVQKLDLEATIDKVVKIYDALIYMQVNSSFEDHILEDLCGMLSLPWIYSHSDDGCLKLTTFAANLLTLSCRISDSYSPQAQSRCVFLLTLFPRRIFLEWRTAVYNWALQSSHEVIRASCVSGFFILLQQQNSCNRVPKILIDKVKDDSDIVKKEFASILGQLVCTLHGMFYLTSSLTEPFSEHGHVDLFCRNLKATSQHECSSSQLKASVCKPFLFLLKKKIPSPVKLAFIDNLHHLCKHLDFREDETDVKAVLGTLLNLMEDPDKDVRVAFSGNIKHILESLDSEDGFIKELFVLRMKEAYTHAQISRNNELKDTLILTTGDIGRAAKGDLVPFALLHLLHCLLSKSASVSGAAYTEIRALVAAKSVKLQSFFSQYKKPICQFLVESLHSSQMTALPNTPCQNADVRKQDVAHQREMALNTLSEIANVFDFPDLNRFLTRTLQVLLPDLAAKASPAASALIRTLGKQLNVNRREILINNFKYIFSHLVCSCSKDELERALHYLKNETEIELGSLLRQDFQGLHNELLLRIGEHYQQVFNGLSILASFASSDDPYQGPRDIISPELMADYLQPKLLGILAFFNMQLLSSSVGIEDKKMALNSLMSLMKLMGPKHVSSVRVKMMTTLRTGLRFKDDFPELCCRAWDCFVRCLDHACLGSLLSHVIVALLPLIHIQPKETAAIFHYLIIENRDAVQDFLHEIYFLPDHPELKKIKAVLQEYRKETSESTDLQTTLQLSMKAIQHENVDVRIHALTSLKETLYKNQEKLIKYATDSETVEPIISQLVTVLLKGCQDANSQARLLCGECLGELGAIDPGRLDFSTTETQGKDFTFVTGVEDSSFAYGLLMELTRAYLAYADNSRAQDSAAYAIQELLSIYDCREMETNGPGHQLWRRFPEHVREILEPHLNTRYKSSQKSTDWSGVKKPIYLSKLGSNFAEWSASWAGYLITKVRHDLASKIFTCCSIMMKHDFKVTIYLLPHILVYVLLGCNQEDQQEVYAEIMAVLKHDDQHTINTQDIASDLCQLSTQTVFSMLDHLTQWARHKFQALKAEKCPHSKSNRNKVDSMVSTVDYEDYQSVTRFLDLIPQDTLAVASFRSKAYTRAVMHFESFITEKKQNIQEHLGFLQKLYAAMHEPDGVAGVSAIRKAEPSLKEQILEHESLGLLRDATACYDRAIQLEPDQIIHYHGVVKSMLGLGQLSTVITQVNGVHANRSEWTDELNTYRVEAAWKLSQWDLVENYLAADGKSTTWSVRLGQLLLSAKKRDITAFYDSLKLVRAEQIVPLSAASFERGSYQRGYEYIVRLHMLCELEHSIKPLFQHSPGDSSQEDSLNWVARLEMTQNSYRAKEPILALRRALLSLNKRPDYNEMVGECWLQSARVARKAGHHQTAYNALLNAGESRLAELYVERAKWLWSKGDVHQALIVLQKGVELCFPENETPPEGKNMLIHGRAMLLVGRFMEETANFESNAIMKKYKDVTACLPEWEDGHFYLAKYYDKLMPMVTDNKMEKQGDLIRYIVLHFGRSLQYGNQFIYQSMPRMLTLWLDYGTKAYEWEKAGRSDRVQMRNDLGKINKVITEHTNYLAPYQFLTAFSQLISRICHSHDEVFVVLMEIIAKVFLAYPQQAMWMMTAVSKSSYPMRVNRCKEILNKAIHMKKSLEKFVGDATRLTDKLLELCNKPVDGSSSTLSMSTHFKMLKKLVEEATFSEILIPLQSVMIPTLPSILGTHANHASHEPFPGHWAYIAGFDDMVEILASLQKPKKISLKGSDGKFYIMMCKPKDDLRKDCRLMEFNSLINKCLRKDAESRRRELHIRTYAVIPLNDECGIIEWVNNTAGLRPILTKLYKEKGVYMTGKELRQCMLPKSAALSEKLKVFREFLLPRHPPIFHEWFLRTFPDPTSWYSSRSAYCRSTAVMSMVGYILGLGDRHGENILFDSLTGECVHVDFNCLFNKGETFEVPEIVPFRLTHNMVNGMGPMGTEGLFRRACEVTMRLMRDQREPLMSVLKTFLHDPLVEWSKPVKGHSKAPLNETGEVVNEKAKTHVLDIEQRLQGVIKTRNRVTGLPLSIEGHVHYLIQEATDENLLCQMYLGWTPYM
Description: Compounds were screened for their ability to inhibit ATR kinase using a radioactive-phosphate incorporation assay. Assays were carried out in a mixture of 50 mM Tris/HCl (pH 7.5), 10 mM MgCl2 and 1 mM DTT. Final substrate concentrations were 10 μM [γ-33P]ATP (3mCi 33P ATP/mmol ATP, Perkin Elmer) and 800 μM target peptide (ASELPASQPQPFSAKKK).
Assays were carried out at 25° C. in the presence of 5 nM full-length ATR. An assay stock buffer solution was prepared containing all of the reagents listed above, with the exception of ATP and the test compound of interest. 13.5 μL of the stock solution was placed in a 96 well plate followed by addition of 2 μL of DMSO stock containing serial dilutions of the test compound (typically starting from a final concentration of 15 μM with 3-fold serial dilutions) in duplicate (final DMSO concentration 7%). The plate was pre-incubated for 10 minutes at 25° C. and the reaction initiated by addition of 15 μL [γ-33P]ATP (final concentration 10 μM).
The reaction was stopped after […] by the addition of 30 μL 0.1M phosphoric acid containing 2 mM ATP. […]
After removing mean background values for all of the data points, Ki(app) data were calculated from non-linear regression analysis of the initial rate data using the Prism software package (GraphPad Prism version 3.0cx for Macintosh, GraphPad Software, San Diego Calif., USA).

[2] = system: HCT116 colorectal cancer cells; test: Single Agent HCT116 Activity, 96 h cell viability (MTS) assay; assay type: cell-based; conditions: Homo sapiens, HCT-116, 96 h MTS, read-out: Single agent HT116 IC50
Description: Compounds can be screened for single agent activity against HCT116 colorectal cancer cells using a 96 h cell viability (MTS) assay. HCT116 are plated at 470 cells per well in 96-well polystyrene plates (Costar 3596) in 150 μl of McCoy's 5A media (Sigma M8403) supplemented with 10% foetal bovine serum (JRH Biosciences 12003), Penicillin/Streptomycin solution diluted 1:100 (Sigma P7539), and 2 mM L-glumtamine (Sigma G7513), and allowed to adhere overnight at 37° C. in 5% CO2. Compounds are then added to the cell media in 2-fold serial dilutions from a top final concentration of 10 μM as a full matrix of concentrations in a final cell volume of 200 μl, and the cells are then incubated at 37° C. in 5% CO2. After 96 h, 40 μl of MTS reagent (Promega G358a) is added to each well and the cells are incubated for 1 h at 37° C. in 5% CO2. Finally, absorbance is measured at 490 nm using a SpectraMax Plus 384 reader (Molecular Devices) and IC50 values can be calculated.

intracellular ATR = intracellular ATR (Homo sapiens (Human), UniProt Q13535); test: Cellular ATR Inhibition Assay (phosphorylation of histone H2AX in hydroxyurea treated HT29 cells); assay type: cell-based; conditions: phosphorylated H2AX Ser139 in HT29 cells, 2 mM hydroxyurea; read-out: ATR biomarker IC50
Chain of intracellular ATR (Q13535 whole entry): as above
Chain of intracellular ATR (Q8WXE1 whole entry partner): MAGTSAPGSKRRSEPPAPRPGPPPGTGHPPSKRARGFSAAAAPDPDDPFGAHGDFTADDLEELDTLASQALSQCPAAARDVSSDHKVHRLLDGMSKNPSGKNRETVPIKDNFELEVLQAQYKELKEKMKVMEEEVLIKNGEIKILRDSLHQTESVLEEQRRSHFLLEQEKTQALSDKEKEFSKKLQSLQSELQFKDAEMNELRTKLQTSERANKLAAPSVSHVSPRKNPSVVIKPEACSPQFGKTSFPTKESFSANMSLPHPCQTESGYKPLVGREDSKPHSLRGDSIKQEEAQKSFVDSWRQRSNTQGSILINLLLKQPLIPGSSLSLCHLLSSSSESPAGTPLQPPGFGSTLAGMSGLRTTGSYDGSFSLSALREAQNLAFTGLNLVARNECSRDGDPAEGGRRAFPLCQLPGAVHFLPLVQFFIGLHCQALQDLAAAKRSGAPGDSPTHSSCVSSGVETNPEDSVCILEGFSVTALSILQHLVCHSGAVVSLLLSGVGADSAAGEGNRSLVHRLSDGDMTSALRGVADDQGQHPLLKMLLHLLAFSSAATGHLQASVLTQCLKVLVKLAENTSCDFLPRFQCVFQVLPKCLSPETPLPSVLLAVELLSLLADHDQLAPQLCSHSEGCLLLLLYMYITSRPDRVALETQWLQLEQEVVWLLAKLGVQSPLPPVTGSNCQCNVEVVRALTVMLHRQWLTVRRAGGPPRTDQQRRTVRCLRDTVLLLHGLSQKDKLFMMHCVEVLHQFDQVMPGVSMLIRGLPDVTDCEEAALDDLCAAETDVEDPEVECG
Description: Compounds can be screened for their ability to inhibit intracellular ATR using an immunofluorescence microscopy assay to detect phosphorylation of the ATR substrate histone H2AX in hydroxyurea treated cells. HT29 cells are plated at 14,000 cells per well in 96-well black imaging plates (BD 353219) in McCoy's 5A media (Sigma M8403) supplemented with 10% foetal bovine serum (JRH Biosciences 12003), Penicillin/Streptomycin solution diluted 1:100 (Sigma P7539), and 2 mM L-glumtamine (Sigma G7513), and allowed to adhere overnight at 37° C. in 5% CO2. Compounds are then added to the cell media from a final concentration of 25 μM in 3-fold serial dilutions and the cells are incubated at 37° C. in 5% CO2. […]
Cells are imaged for Alexa Fluor 488 and Hoechst intensity using the BD Pathway 855 Bioimager and Attovision software (BD Biosciences, Version 1.6/855) to quantify phosphorylated H2AX Ser139 and DNA staining, respectively. The percentage of phosphorylated H2AX-positive nuclei in a montage of 9 images at 20× magnification is then calculated for each well using BD Image Data Explorer software (BD Biosciences Version 2.2.15). […] The percentage of H2AX positive nuclei is finally plotted against concentration for each compound and IC50s for intracellular ATR inhibition are determined using Prism software (GraphPad Prism version 3.0cx for Macintosh, GraphPad Software, San Diego Calif., USA).

[3] = system: HCT116 colorectal cancer cells; test: Cisplatin Sensitization Assay, 96 h cell viability (MTS) assay; assay type: cell-based; conditions: concentration of compound required to reduce the IC50 of Cisplatin alone by at least 3-fold; HCT116, 96 h MTS
Description: Compounds can be screened for their ability to sensitize HCT116 colorectal cancer cells to Cisplatin using a 96 h cell viability (MTS) assay. […] Compounds and Cisplatin are then both added simultaneously to the cell media in 2-fold serial dilutions from a top final concentration of 10 μM as a full matrix of concentrations in a final cell volume of 200 μl, and the cells are then incubated at 37° C. in 5% CO2. After 96 h, 40 μl of MTS reagent (Promega G358a) is added to each well and the cells are incubated for 1 h at 37° C. in 5% CO2. Finally, absorbance is measured at 490 nm using a SpectraMax Plus 384 reader (Molecular Devices) and the concentration of compound required to reduce the IC50 of Cisplatin alone by at least 3-fold (to 1 decimal place) can be reported.

clearance ([1]; blood or plasma samples): 3.5 mL/min/kg
Vd ([1]; steady state volume of distribution, read-out: VSS): 1.1 L/kg
Ki (full-length ATR): 0.503 nM
IC50 [2]: 365 nM
IC50 (intracellular ATR): 200 nM
SMILES: CC(C)S(=O)(=O)c1ccc(-c2cnc(N)c(-c3cc(-c4ccc([C@@H]5COCCN5)cc4)no3)n2)cc1 [I, 5-(4-isopropylsulfonylphenyl)-3-[3-[4-[(3R)-morpholin-3-yl]phenyl]isoxazol-5-yl]pyrazin-2-amine]
Cisplatin sensitization [3]: 117 nM
